The values below come from patent publication US20050223431A1, “Methods of modulating glucosinolate production in plants” (The Arizona Board of Regents on Behalf of the University of …, priority 2000, published 2005).

In data set [1] the target is T1, CYP83A1 (Arabidopsis thaliana, UniProt P48421).
T1 sequence (P48421 1-502): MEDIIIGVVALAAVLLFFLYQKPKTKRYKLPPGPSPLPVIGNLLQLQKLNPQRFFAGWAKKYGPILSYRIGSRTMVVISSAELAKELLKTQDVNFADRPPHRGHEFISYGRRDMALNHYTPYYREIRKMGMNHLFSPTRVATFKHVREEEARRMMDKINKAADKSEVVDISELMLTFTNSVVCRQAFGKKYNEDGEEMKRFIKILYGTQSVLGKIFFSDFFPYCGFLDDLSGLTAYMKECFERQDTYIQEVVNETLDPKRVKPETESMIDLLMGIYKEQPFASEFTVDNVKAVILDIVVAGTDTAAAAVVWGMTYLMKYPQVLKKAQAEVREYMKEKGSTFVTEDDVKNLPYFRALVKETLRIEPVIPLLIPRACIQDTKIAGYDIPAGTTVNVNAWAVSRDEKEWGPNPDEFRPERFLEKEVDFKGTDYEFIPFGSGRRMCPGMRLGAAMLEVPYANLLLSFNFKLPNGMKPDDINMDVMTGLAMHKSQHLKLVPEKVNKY
Kind of data set: biochemical. The settings on record: for Type II spectrum (ligand binding to active site) / Relative affinity for ligand binding, from amplitudes of type II spectra: CYP83A1, 200 μM ligand. The source says: (§1) FIG. 6 is a spectral characterization of CYP83A1 and CYP83B1. […] 1) tryptamine, 2) β-phenylethylamine, 3) tyramine, 4) n-octylamine, 5) 5-OH-tryptamine, 6) 3-OH-tyramine, B) baseline.
(§2) To compensate for ligand absorbance, the experimental data were fitted to a hyperbolic curve using the equation A=Amax*X/(Ks+X)+C*X, where A is the amplitude of the spectra, X the concentration of ligand, and C the contribution from ligand absorbance. The computed regression curve is shown as well as the experimental data points.
(§3) Microsomes from yeast WAT11 cells expressing the CYP83A1 and CYP83B1 cDNA using the pYeDP60 vector were isolated and the amount of functional enzyme quantified essentially according to Pompon et al. (1996) Methods Enzymol. 272:51-64. […] 13:101-111 and references therein. Vmax and Km were determined as previously described using 2.2 nM of CYP83A1 or CYP83B1 and 50 mM L-cysteine as thiol donor (Bak et al. (2001) Plant Cell. 13:101-111). […] Vmax, Km, and Ks were calculated using SigmaPlot 5.0 (SPSS Inc.). For analysis of CYP83B1 activity in the presence or absence of thiol donors, recombinant CYP83B1 was reconstituted and analyzed as previously described (Bak et al. (2001) Plant Cell. 13:101-111).
(§4) To characterize the topology of the active sites of […] and CYP83B 1, we have taken advantage of the ability of nitrogen-containing ligands like primary amines to produce type II spectra with cytochrome P450 enzymes by binding to the active site bringing the electron lone pairs of the amine group in close vicinity to the heme iron (Jefcoate C. R. (1978) Methods Enzymol 27:258-279). This gives rise to a characteristic spectrum with a trough around 390 nm and a peak around 425 nm.
(§5) By titrating the amplitude of the type II difference spectra with increasing concentrations of ligand, Ks values were determined for tryptamine and β-phenylethylamine (FIG. 7).

For data set [2], the target named is T2, CYP83B1 (Arabidopsis thaliana, UniProt O65782).
T2 sequence (O65782 1-499): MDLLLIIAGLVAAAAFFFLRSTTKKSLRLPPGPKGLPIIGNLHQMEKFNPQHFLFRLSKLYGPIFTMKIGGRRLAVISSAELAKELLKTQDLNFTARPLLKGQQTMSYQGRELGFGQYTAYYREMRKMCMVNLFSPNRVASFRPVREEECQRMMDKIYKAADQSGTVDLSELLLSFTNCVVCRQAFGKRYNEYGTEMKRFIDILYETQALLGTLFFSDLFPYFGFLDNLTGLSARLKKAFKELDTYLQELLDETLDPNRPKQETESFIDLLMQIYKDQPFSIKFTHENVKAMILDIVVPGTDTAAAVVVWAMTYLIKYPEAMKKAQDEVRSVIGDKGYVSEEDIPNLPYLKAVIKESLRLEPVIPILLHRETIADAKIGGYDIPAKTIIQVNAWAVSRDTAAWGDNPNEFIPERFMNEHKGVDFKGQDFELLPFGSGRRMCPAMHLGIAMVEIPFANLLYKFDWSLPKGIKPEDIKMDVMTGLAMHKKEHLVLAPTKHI
Kind of data set: biochemical. To be noted: for Type II spectrum (ligand binding to active site) / Relative affinity for ligand binding, from amplitudes of type II spectra: CYP83B1, 200 μM ligand.
Description: as §1, §2, §3, §4, §5

Data set [3] has as its target T2, CYP83B1. Kind of data set: Kinetics of indole-3-acetaldoxime metabolism by recombinant enzyme in yeast microsomes. As for the experimental part: Computed regression curves as well as the experimental data points are shown. The correlation coefficients (R^2) for CYP83B1 and CYP83A1 regression analyses are 0.985 and 0.999, respectively.
as §3

Data set [4] addresses T1, CYP83A1. Kind of data set: Reconstitution with oximes, turnover numbers by GC-MS. Details: made in house; host or cells: yeast WAT11 cells, pYeDP60 vector; microsomes. The format is biochemical. To be noted: CYP83A1 0.5 μM, 1 mM substrate, β-mercaptoethanol thiol donor, 20 min at 28° C. As for the experimental part: (§6) Turnover numbers were calculated based on the relative areas under the substrate and product peaks. Silylated substrates and products were identified by their fragmentation pattern in both electron impact mode and chemical ionization mode.
(§7) Reconstitution experiments were also conducted to compare the ability of CYP83A1 and CYP83B1 to metabolize other oximes. The putative substrates tested were p-hydroxyphenylacetaldoxime derived from tyrosine and phenylacetaldoxime derived from phenylalanine. In all studies, β-mercaptoethanol was the thiol donor. […] Conversely, the turnover of p-hydroxyphenylacetaldoxime was higher using CYP83A1 compared to CYP83B 1. Phenylacetaldoxime was identified as a substrate for CYP83A1 as well as for CYP83B1 but the turnover numbers were low (Table 1).

For data set [5], the target named is T2, CYP83B1. Described as above. The data set is classed as biochemical. Also on record: made in house; host or cells: yeast WAT11 cells, pYeDP60 vector; microsomes. To be noted: CYP83B1 0.5 μM, 1 mM substrate, β-mercaptoethanol thiol donor, 20 min at 28° C. As for the experimental part:
as §6, §7

Data set [6] deals with T2, CYP83B1. Details: made in house; host or cells: yeast WAT11 cells, pYeDP60 vector; microsomes. The settings on record: cited from earlier work.
The test system of a further data set is ON=CCc1c[nH]c2ccccc12. Kind of data set: cells, lysate or membranes named. To be noted: other: CYP83A1 in yeast microsomes, 2.2 nM enzyme, 50 mM L-cysteine as thiol donor.
Substrate in data set [7]: ON=CCc1c[nH]c2ccccc12
Kind of data set: cells, lysate or membranes named. To be noted: other: CYP83B1 in yeast microsomes, 2.2 nM enzyme, 50 mM L-cysteine as thiol donor.

On to `NCCc1c[nH]c2ccc(O)cc12` [5-OH-tryptamine], for which the “Type II spectrum (ligand binding to active site)” value (from here on “Type II spectrum”) on CYP83A1 [1] and at CYP83B1 [2] was “abolished binding” throughout.
For `N#CCc1c[nH]c2ccccc12` [Indole-3-acetonitrile], the “Type II spectrum” value on CYP83A1 [1] and on CYP83B1 [2] was “did not produce a type II spectrum” each time.
Turning to `ON=CCc1c[nH]c2ccccc12` [indole-3-acetaldoxime], the “Fold higher catalytic efficiency (Vmax/Km), CYP83B1 compared to CYP83A1” value at CYP83B1 [3] (indole-3-acetaldoxime as substrate) was determined as 20 fold. Moreover, on CYP83B1 [3] (indole-3-acetaldoxime, higher affinity (lower Km) for CYP83B1), the “Fold difference in Km / affinity, CYP83B1 versus CYP83A1” value turned out to be 50 fold. Further, the results for the “Turnover, indole-3-acetaldoxime” value at CYP83A1 [4] and at CYP83B1 [5] were 10 min⁻¹ and 26 min⁻¹, respectively.
Take `CCCCCCCCN` [n-octylamine]: on CYP83A1 [1], the “Relative affinity for ligand binding, from amplitudes of type II spectra” value (from here on “Relative affinity for ligand binding”) is recorded as “n-octylamine>>α-phenylethylamine=tryptarine>tyramine” and the “Type II spectrum” value is “type II spectra were observed”. On CYP83B1 [2], the “Relative affinity for ligand binding” value is listed as “tryptamine >>β-phenylethylanine>n-octylamine>tyramine” and the “Type II spectrum” value was “type II spectra were observed”.
With `ON=CCc1ccc(O)cc1` [p-hydroxyphenylacetaldoxime], the figures for the Turnover p-hydroxyphenylacetaldoxime at CYP83A1 [4] and on CYP83B1 [5] were 25 min⁻¹ and 9.8 min⁻¹, respectively.
As for `ON=CCc1ccccc1` [phenylethylacetaldoxime, phenylacetaldoxime], the Turnover phenylethylacetaldoxime is 7.2 min⁻¹ on CYP83A1 [4] and 15 min⁻¹ at CYP83B1 [5].
`NCCc1c[nH]c2ccccc12` [tryptamine]: on CYP83A1 [1], the affinity, expressed as Kd, was 240 ± 180 µM and the “Relative affinity for ligand binding” value is given as “n-octylamine>>α-phenylethylamine=tryptarine>tyramine”. In addition, on CYP83B1 [2], the equilibrium dissociation constant (Kd) – broadly, the free concentration of one partner at which half of the binding sites on the other are occupied at equilibrium, for simple one-to-one binding – is 18 ± 5 µM and the “Relative affinity for ligand binding” value is “tryptamine >>β-phenylethylanine>n-octylamine>tyramine”. In addition, on CYP83B1 [2] (from Ks values), the “Fold stronger binding to CYP83B1 compared to CYP83A1” value stood at 13 fold and the “Fold stronger ligand for CYP83B1 compared to β-phenylethylamine” value is 30 fold. The “Inhibition of metabolism of indole-3-acetaldoxime” value at CYP83B1 [6] is reported as “inhibits metabolism of indole-3-acetaldoxime”.
On to `NCCc1ccccc1` [β-phenylethylamine], for which, at CYP83A1 [1], the equilibrium dissociation constant (Kd) came out at 390 ± 70 µM; the “Relative affinity for ligand binding” value is reported as “n-octylamine>>α-phenylethylamine=tryptarine>tyramine”; the “Type II spectrum” value was “type II spectra were observed”. Besides, at CYP83B1 [2], the Kd came out at 540 ± 180 µM; the “Relative affinity for ligand binding” value is recorded as “tryptamine >>β-phenylethylanine>n-octylamine>tyramine”; the “Type II spectrum” value is “type II spectra were observed”.
With CYP83A1 (Arabidopsis thaliana), in the data set with ON=CCc1c[nH]c2ccccc12, the Km (as a rule, the concentration of substrate that gives half-maximal velocity) is 150 ± 15 µM and the catalytic constant (kcat) (usually the maximal rate divided by the concentration of active sites) amounted to 2.33 ± 0.167 s⁻¹.

B1: CYP83B1 (Arabidopsis thaliana) (protein)
chain: T2 sequence (O65782 1-499)
Take B1: in data set [7], the Km is 3.1 ± 0.4 µM.
